Measured values: the supplement of paper PMC10331698
± gives the standard deviation of the averaged measurements.

Assays:
Test in all cases: level (log10 ratio to DMSO vehicle control); higher = higher biomarker level / cell amount than vehicle control
[1] = compound: C=C(C)C(=O)OCC(F)(F)C(F)(F)C(F)(F)F [2,2,3,3,4,4,4-Heptafluorobutyl methacrylate]; conditions: in DMSO
Protocol: (§1)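 BioMAP Diversity Plus panel of 12 human primary cell co-culture systems (3C, 4H, LPS, SAg, BT, BF4T, BE3C, CASM3C, HDF3CGF, KF3CT, MyoF, Mphg). Compounds were added 1 h before stimulation and left for 24 h (MyoF 48 h; BT 72 h for soluble read-outs or 6 d for IgG). Biomarkers were read by ELISA, cytotoxicity by SRB, PBMC viability and proliferation by Alamar Blue. Each well value was divided by the mean of 8 DMSO control wells on the same plate and log10 transformed; duplicate blinded samples were tested at 4 concentrations.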

Perfluoropinacol = compound: OC(C(F)(F)F)(C(F)(F)F)C(O)(C(F)(F)F)C(F)(F)F [Perfluoropinacol]; conditions: in DMSO
Protocol: as §1

[2] = compound: OCCC(F)(F)C(F)(F)C(F)(F)C(F)(F)C(F)(F)C(F)(F)C(F)(F)C(F)(F)F [8:2 Fluorotelomer alcohol]; conditions: 6700 nM; in DMSO
Protocol: as §1

[3] = compound: OCC(F)(F)C(F)(F)C(F)(F)C(F)(F)C(F)(F)C(F)(F)C(F)(F)C(F)(F)CO [1H,1H,10H,10H-Perfluorodecane-1,10-diol]; conditions: in DMSO
Protocol: as §1

[4] = compound: FC(F)(F)COC(OCC(F)(F)F)OCC(F)(F)F [tris(Trifluoroethoxy)methane]; conditions: in DMSO
Protocol: as §1

Methotrexate = compound: CN(Cc1cnc2nc(N)nc(N)c2n1)c1ccc(C(=O)N[C@@H](CCC(=O)O)C(=O)O)cc1 [Methotrexate]; conditions: in DMSO
Protocol: as §1

[5] = compound: Cc1ccc(S(=O)(=O)OCC(F)(F)C(F)(F)C(F)(F)C(F)(F)C(F)(F)C(F)F)cc1 [1H,1H,7H-Perfluoroheptyl 4-methylbenzenesulfonate]; conditions: in DMSO
Protocol: as §1

Test System | level (log10) ([1]; 6700 nM) | level (log10) ([1]; 20000 nM) | level (log10) ([1]; 60000 nM) | level (log10) (Perfluoropinacol; 6700 nM) | level (log10) (Perfluoropinacol; 20000 nM) | level (log10) [2] | level (log10) ([3]; 6700 nM) | level (log10) ([3]; 20000 nM) | level (log10) ([3]; 60000 nM) | level (log10) ([4]; 6700 nM) | level (log10) ([4]; 20000 nM) | level (log10) ([4]; 60000 nM) | level (log10) (Methotrexate; 1500 nM) | level (log10) (Methotrexate; 4400 nM) | level (log10) (Methotrexate; 13000 nM) | level (log10) (Methotrexate; 40000 nM) | level (log10) ([5]; 6700 nM) | level (log10) ([5]; 20000 nM) | level (log10) ([5]; 60000 nM)
MyoF:MMP-1 | -0.0215 ± 0.023 | -0.0075 ± 0.0092 | 0.0165 ± 0.047 | -0.0075 ± 0.012 | -0.027 ± 0.0042 | -0.0175 ± 0.011 | -0.0415 ± 0.013 | -0.0275 ± 0.012 | 0.284 | -0.0085 ± 0.039 | -0.0145 ± 0.021 | 0.02 ± 0.044 | 0.002 ± 0.027 | -0.017 ± 0.02 | -0.004 ± 0.018 | 0.0175 ± 0.0021 | -0.0115 ± 0.0035 | 0.0185 ± 0.016 | 0.048 ± 0.014
CASM3C:PAI-I | -0.003 ± 0.0042 | 0.0005 ± 0.0021 | 0.001 ± 0.0042 | -0.006 ± 0.0071 | -0.0075 ± 0.0064 | -0.0035 ± 0.011 | -0.0095 ± 0.0035 | -0.011 ± 0.0042 | -0.01 | -0.003 ± 0.03 | 0.0015 ± 0.013 | 0.007 ± 0.0057 | 0.004 ± 0.013 | 0.0035 ± 0.0064 | 0.0125 ± 0.0035 | 0.0105 ± 0.0021 | -0.004 ± 0.0028 | -0.007 ± 0.0085 | -0.008 ± 0.016
MyoF:PAI-I | -0.001 ± 0.0085 | 0.008 ± 0.0085 | 0.015 ± 0.0014 | -0.0215 ± 0.012 | -0.0025 ± 0.00071 | -0.004 ± 0.018 | -0.0155 ± 0.005 | -0.008 ± 0.0042 | -0.005 | -0.0045 ± 0.018 | -0.0035 ± 0.00071 | 0.008 ± 0.0042 | -0.026 ± 0.072 | -0.011 ± 0.035 | 0.0015 ± 0.016 | -0.0185 ± 0.084 | -0.007 ± 0.0085 | -0.0085 ± 0.013 | -0.019 ± 0.013
CASM3C:CD106/VCAM-1 | 0.0205 ± 0.013 | -0.006 ± 0.04 | 0.001 ± 0.02 | -0.028 ± 0.0042 | -0.0385 ± 0.015 | -0.0825 ± 0.015 | 0 ± 0.02 | -0.0065 ± 0.025 | -0.151 | -0.0095 ± 0.005 | -0.02 ± 0.0014 | -0.025 ± 0.0057 | -0.022 ± 0.05 | 0.016 ± 0.0014 | 0.009 ± 0.0028 | -0.002 ± 0.027 | 0.001 ± 0.0028 | -0.011 ± 0.0014 | 0.0135 ± 0.005
BE3C:tPA | -0.0095 ± 0.029 | -0.016 ± 0.016 | -0.021 ± 0.027 | -0.0455 ± 0.0078 | -0.224 ± 0.012 | -0.064 ± 0.013 | 0.073 ± 0.021 | 0.097 ± 0.011 | -0.108 | -0.0075 ± 0.013 | -0.028 ± 0.024 | -0.0125 ± 0.021 | 0.012 ± 0.0071 | -0.004 ± 0.075 | 0.0085 ± 0.091 | 0.0215 ± 0.033 | -0.002 ± 0.044 | -0.032 ± 0.054 | -0.013 ± 0.034
CASM3C:LDLR | -0.0045 ± 0.036 | 0.006 ± 0.0042 | 0.0055 ± 0.0078 | -0.067 ± 0.0014 | -0.0505 ± 0.018 | -0.0045 ± 0.0078 | -0.016 ± 0.035 | 0.0035 ± 0.016 | -0.048 | -0.0325 ± 0.022 | -0.0055 ± 0.015 | 0.008 ± 0.013 | 0.011 ± 0.0042 | 0.0465 ± 0.042 | 0.0205 ± 0.022 | 0.0455 ± 0.066 | -0.0095 ± 0.0092 | 0.007 ± 0.0099 | 0.0285 ± 0.022
